Assay results: article PMC4467398, “Preclinical antitumor activity of ST7612AA1: a new oral thiol-based histone deacetylase (HDAC) inhibitor” (Oncotarget, 2014)

System: DOHH2 and TMD8 DLBCL cells
Assay: Gene expression profiling (HumanHT-12 v4 BeadChip, limma), ST7612AA1 300 nM 8 hrs vs DMSO
Type: cell-based, human

With `CC(=O)SCCCCC[C@H](NC(=O)[C@H]1CCC(=O)N1)C(=O)Nc1ccccc1` [ST7612AA1] the “AveExpr.ST7612 TANK (probe ILMN_1715069)” value (300 nM 8 hrs) was 8.21E-01, the “AveExpr.ST7612 TBC1D7 (probe ILMN_1661622)” value (300 nM 8 hrs) was 7.33E-01 and the “AveExpr.ST7612 TBC1D16 (probe ILMN_1758457)” value (300 nM 8 hrs) was 7.24E-01. For the same compound, the “AveExpr.ST7612 TCEA2 (probe ILMN_1665526)” value (300 nM 8 hrs) was 8.50E-01, the “AveExpr.ST7612 TCEAL3 (probe ILMN_1734190)” value (300 nM 8 hrs) was 7.88E-01 and the “AveExpr.ST7612 TCTN1 (probe ILMN_1685124)” value (300 nM 8 hrs) was 7.81E-01. The “AveExpr.ST7612 TESK2 (probe ILMN_1654370)” value (300 nM 8 hrs) was 8.37E-01, the “AveExpr.ST7612 TMEM14A (probe ILMN_1785191)” value (300 nM 8 hrs) was 7.29E-01 and the “AveExpr.ST7612 TMEM49 (probe ILMN_1692754)” value (300 nM 8 hrs) was 8.49E-01. For the same compound, the “AveExpr.ST7612 TMEM154 (probe ILMN_2088124)” value (300 nM 8 hrs) was 6.89E-01, the “AveExpr.ST7612 TMOD2 (probe ILMN_3250273)” value (300 nM 8 hrs) was 7.57E-01 and the “AveExpr.ST7612 TPRG1L (probe ILMN_1727479)” value (300 nM 8 hrs) was 7.86E-01. For the same compound, the “AveExpr.ST7612 TPST1 (probe ILMN_1651950)” value (300 nM 8 hrs) was 7.51E-01, the “AveExpr.ST7612 TPST2 (probe ILMN_1695432)” value (300 nM 8 hrs) was 7.18E-01 and the “AveExpr.ST7612 TRAFD1 (probe ILMN_1758250)” value (300 nM 8 hrs) was 8.52E-01. For the same compound, the “AveExpr.ST7612 UBE2A (probe ILMN_2307455)” value (300 nM 8 hrs) was 7.18E-01, the “AveExpr.ST7612 UBTD1 (probe ILMN_1794914)” value (300 nM 8 hrs) was 8.56E-01 and the “AveExpr.ST7612 UCP2 (probe ILMN_1685625)” value (300 nM 8 hrs) was 7.30E-01. The “AveExpr.ST7612 UNC84A (probe ILMN_1772316)” value (300 nM 8 hrs) was 7.21E-01, the “AveExpr.ST7612 UPLP (probe ILMN_3236765)” value (300 nM 8 hrs) was 7.46E-01 and the “AveExpr.ST7612 VASH2 (probe ILMN_1692698)” value (300 nM 8 hrs) was 7.31E-01. The “AveExpr.ST7612 VPS8 (probe ILMN_1678268)” value (300 nM 8 hrs) was 7.47E-01, the “AveExpr.ST7612 WDR19 (probe ILMN_1655117)” value (300 nM 8 hrs) was 7.77E-01 and the “AveExpr.ST7612 YPEL5 (probe ILMN_1711069)” value (300 nM 8 hrs) was 6.99E-01. The “AveExpr.ST7612 ZDHHC8 (probe ILMN_1789492)” value (300 nM 8 hrs) was 8.85E-01, the “AveExpr.ST7612 ZNF775 (probe ILMN_1691702)” value (300 nM 8 hrs) was 7.39E-01 and the “log ratio 1999-08-31 (probe ILMN_1659953)” value (300 nM 8 hrs vs DMSO) was 8.50E-01. The “log ratio (probe ILMN_1816244)” value (300 nM 8 hrs vs DMSO) was 7.08E-01, the “log ratio (probe ILMN_1827736)” value (300 nM 8 hrs vs DMSO) was 8.76E-01 and the “log ratio (probe ILMN_1909886)” value (300 nM 8 hrs vs DMSO) was 7.98E-01. The “log ratio AACS (ILMN_1698554)” value (300 nM 8 hrs vs DMSO) was 6.24E-01, the “log ratio ABCA7 (probe ILMN_1743205)” value (300 nM 8 hrs vs DMSO) was 7.64E-01 and the “log ratio ABCC4 (ILMN_1788457)” value (300 nM 8 hrs vs DMSO) was -8.19E-01. For the same compound, the “log ratio ABCC4 (ILMN_2194009)” value (300 nM 8 hrs vs DMSO) was -8.58E-01, the “log ratio ABCE1 (ILMN_2330267)” value (300 nM 8 hrs vs DMSO) was -7.82E-01 and the “log ratio ACAT2 (ILMN_1708672)” value (300 nM 8 hrs vs DMSO) was -1.01E+00. The “log ratio ACOT7 (ILMN_2332250)” value (300 nM 8 hrs vs DMSO) was 6.55E-01, the “log ratio ACSL3 (ILMN_2360705)” value (300 nM 8 hrs vs DMSO) was 5.95E-01 and the “log ratio ACSL5 (ILMN_1705247)” value (300 nM 8 hrs vs DMSO) was -1.24E+00. For the same compound, the “log ratio ACSL5 (ILMN_2370882)” value (300 nM 8 hrs vs DMSO) was -9.69E-01, the “log ratio ADARB1 (probe ILMN_1679797)” value (300 nM 8 hrs vs DMSO) was 7.60E-01 and the “log ratio ADD3 (ILMN_1787378)” value (300 nM 8 hrs vs DMSO) was 6.27E-01. For the same compound, the “log ratio ADD3 (ILMN_1814526)” value (300 nM 8 hrs vs DMSO) was 6.45E-01, the “log ratio ADD3 (ILMN_2311278)” value (300 nM 8 hrs vs DMSO) was 6.14E-01 and the “log ratio ADIPOR2 (ILMN_2224833)” value (300 nM 8 hrs vs DMSO) was 6.41E-01. The “log ratio ADNP2 (ILMN_2080751)” value (300 nM 8 hrs vs DMSO) was 6.66E-01, the “log ratio ADRBK1 (ILMN_3307926)” value (300 nM 8 hrs vs DMSO) was -6.13E-01 and the “log ratio ADSS (ILMN_2092664)” value (300 nM 8 hrs vs DMSO) was -8.15E-01. For the same compound, the “log ratio AFMID (ILMN_1707551)” value (300 nM 8 hrs vs DMSO) was 6.36E-01, the “log ratio AGTPBP1 (ILMN_1718071)” value (300 nM 8 hrs vs DMSO) was 6.75E-01 and the “log ratio AKAP8 (ILMN_1741572)” value (300 nM 8 hrs vs DMSO) was -8.28E-01. The “log ratio AKAP13 (ILMN_2396956)” value (300 nM 8 hrs vs DMSO) was 6.04E-01, the “log ratio ALDH2 (probe ILMN_1793859)” value (300 nM 8 hrs vs DMSO) was 8.03E-01 and the “log ratio ALDH3A2 (ILMN_1794825)” value (300 nM 8 hrs vs DMSO) was 6.08E-01. The “log ratio ALG14 (ILMN_2191822)” value (300 nM 8 hrs vs DMSO) was -6.09E-01, the “log ratio ALOX5 (probe ILMN_1680996)” value (300 nM 8 hrs vs DMSO) was 8.46E-01 and the “log ratio ALS2 (ILMN_1750256)” value (300 nM 8 hrs vs DMSO) was 6.20E-01. For the same compound, the “log ratio AMOT (probe ILMN_1792409)” value (300 nM 8 hrs vs DMSO) was 7.65E-01, the “log ratio AMZ2 (ILMN_1801606)” value (300 nM 8 hrs vs DMSO) was 6.00E-01 and the “log ratio ANAPC13 (ILMN_1793894)” value (300 nM 8 hrs vs DMSO) was -1.08E+00. For the same compound, the “log ratio ANKLE1 (ILMN_3243457)” value (300 nM 8 hrs vs DMSO) was -8.03E-01, the “log ratio ANKMY2 (ILMN_1784292)” value (300 nM 8 hrs vs DMSO) was 5.99E-01 and the “log ratio ANKRD6 (ILMN_2178587)” value (300 nM 8 hrs vs DMSO) was 6.74E-01. The “log ratio ANKRD41 (ILMN_2091590)” value (300 nM 8 hrs vs DMSO) was -9.47E-01, the “log ratio ANP32B (ILMN_1684293)” value (300 nM 8 hrs vs DMSO) was -9.66E-01 and the “log ratio APAF1 (probe ILMN_1659463)” value (300 nM 8 hrs vs DMSO) was 8.78E-01. For the same compound, the “log ratio APLP1 (probe ILMN_1763834)” value (300 nM 8 hrs vs DMSO) was 8.17E-01, the “log ratio APLP2 (ILMN_1710482)” value (300 nM 8 hrs vs DMSO) was 5.98E-01 and the “log ratio ARFIP1 (ILMN_2403906)” value (300 nM 8 hrs vs DMSO) was 5.95E-01. For the same compound, the “log ratio ARG2 (ILMN_1800898)” value (300 nM 8 hrs vs DMSO) was 6.68E-01, the “log ratio ARID2 (ILMN_2182335)” value (300 nM 8 hrs vs DMSO) was -6.15E-01 and the “log ratio ARL6IP1 (probe ILMN_1708416)” value (300 nM 8 hrs vs DMSO) was 6.93E-01. For the same compound, the “log ratio ARSB (ILMN_2242937)” value (300 nM 8 hrs vs DMSO) was -9.59E-01, the “log ratio ATG2A (probe ILMN_1756006)” value (300 nM 8 hrs vs DMSO) was 8.92E-01 and the “log ratio ATP6V0C (ILMN_1789005)” value (300 nM 8 hrs vs DMSO) was 6.37E-01.
